# Counter-ions that a name gives are not always drawn.
# Target: ROCK2 (Homo sapiens (Human), UniProt O75116)
# Experiment: biochemical
# 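Also: rho kinase enzyme reaction halted with EDTA, phospho- and non-phospho peptide separated for read-out, kinase activity inhibition derived across a dose-response series, DMSO under 2%.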
# ROCK2, sequence (O75116 whole entry, species assumed): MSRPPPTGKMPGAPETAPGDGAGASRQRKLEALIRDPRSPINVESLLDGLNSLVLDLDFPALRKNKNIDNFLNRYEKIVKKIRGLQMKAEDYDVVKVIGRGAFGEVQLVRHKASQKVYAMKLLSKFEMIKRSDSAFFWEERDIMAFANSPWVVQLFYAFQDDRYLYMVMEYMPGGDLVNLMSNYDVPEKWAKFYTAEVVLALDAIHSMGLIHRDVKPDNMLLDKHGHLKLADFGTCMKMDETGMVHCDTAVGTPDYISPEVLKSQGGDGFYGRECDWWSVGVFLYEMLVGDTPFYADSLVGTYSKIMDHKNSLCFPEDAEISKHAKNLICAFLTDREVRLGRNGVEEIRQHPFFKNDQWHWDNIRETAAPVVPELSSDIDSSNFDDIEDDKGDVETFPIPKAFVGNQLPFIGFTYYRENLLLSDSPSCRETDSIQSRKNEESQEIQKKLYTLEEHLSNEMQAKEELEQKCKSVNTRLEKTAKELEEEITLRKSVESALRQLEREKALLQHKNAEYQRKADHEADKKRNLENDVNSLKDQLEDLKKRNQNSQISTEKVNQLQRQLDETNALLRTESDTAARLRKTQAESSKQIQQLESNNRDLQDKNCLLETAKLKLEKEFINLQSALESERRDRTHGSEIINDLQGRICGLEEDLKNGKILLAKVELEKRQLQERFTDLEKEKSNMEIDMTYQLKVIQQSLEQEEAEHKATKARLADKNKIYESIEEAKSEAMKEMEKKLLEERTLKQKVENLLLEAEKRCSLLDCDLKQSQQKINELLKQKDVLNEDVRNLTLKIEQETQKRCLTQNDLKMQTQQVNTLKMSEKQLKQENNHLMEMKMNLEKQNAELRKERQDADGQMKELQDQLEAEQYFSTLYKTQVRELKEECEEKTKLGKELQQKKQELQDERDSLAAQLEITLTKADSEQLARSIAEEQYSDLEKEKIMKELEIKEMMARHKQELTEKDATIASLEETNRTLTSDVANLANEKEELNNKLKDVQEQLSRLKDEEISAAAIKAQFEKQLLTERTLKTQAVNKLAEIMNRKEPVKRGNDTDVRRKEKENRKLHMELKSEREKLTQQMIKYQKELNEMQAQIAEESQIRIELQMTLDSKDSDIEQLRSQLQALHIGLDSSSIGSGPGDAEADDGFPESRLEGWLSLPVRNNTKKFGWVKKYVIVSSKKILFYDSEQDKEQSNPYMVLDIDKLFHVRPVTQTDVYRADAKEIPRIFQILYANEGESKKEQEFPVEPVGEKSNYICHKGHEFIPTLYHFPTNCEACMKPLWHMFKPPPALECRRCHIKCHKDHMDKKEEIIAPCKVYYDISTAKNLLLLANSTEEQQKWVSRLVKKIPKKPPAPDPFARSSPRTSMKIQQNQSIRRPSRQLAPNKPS
row,SMILES,IC50
1,"O=C1C(Nc2nc3ccccc3[nH]2)CCN1c1ccc(-c2cn[nH]c2)cc1 (single isomer, unassigned) [Example 56, 3-((1H-benzo[d]imidazol-2-yl)amino)-1-(4-(1H-pyrazol-4-yl)phenyl)pyrrolidin-2-one]",10 to 100 nM
2,"O=C1C(Cc2ccccc2Cl)CCN1c1ccc(-c2cn[nH]c2)cc1 (stereo not shown) [Example 95, 1-(4-(1H-pyrazol-4-yl)phenyl)-3-(2-chlorobenzyl)pyrrolidin-2-one]",100 to 2200 nM
3,"COc1cc(NC2CCN(c3ccc(-c4cn[nH]c4)c(OC)c3)C2=O)cc(OC)c1 (single isomer, unassigned) [Example 139, 3-((3,5-dimethoxyphenyl)amino)-1-(3-methoxy-4-(1H-pyrazol-4-yl)phenyl) pyrrolidin-2-one]",100 to 2200 nM
4,"O=C1C(Nc2cccnc2)CCN1c1ccc(-c2cn[nH]c2)cc1 (stereo not shown) [Example 9, 1-(4-(1H-pyrazol-4-yl)phenyl)-3-(pyridin-3-ylamino)pyrrolidin-2-one]",10 to 100 nM
5,"CCOc1cc(N2CCC(Nc3cccc(OC)c3)C2=O)ccc1-c1cn[nH]c1 (single isomer, unassigned) [Example 34, 1-(3-ethoxy-4-(1H-pyrazol-4-yl)phenyl)-3-((3-methoxyphenyl)amino)pyrrolidin-2-one]",< 10 nM
6,"O=C1C(Nc2cccc(OCC3CC3)c2)CCN1c1ccc(-c2cn[nH]c2)cc1 (stereo not shown) [Example 11, 1-(4-(1H-pyrazol-4-yl)phenyl)-3-((3-(cyclopropylmethoxy)phenyl)amino)pyrrolidin-2-one]",< 10 nM
7,"COc1cc(N2CCC(Nc3cc(F)cc(F)c3)C2=O)ccc1-c1cn[nH]c1 (single isomer, unassigned) [Example 146, 3-((3,5-difluorophenyl)amino)-1-(3-methoxy-4-(1H-pyrazol-4-yl)phenyl) pyrrolidin-2-one]",< 10 nM
8,"COc1cc(N2CCC(Nc3cccc(OC(F)F)c3)C2=O)ccc1-c1cn[nH]c1 (stereo not shown) [Example 69, 3-((3-(difluoromethoxy)phenyl)amino)-1-(3-methoxy-4-(1H-pyrazol-4-yl)phenyl)pyrrolidin-2-one]",10 to 100 nM
9,"Cc1nc2ccc(NC3CCN(c4ccc(-c5cn[nH]c5)cc4)C3=O)cc2s1 (stereo not shown) [Example 115, 1-(4-(1H-pyrazol-4-yl)phenyl)-3-((2-methylbenzo[d]thiazol-6-yl)amino)pyrrolidin-2-one]",100 to 2200 nM
10,"COc1cccc(CCC2CCN(c3ccc(-c4cn[nH]c4)cc3)C2=O)c1 (stereo not shown) [Example 99, 1-(4-(1H-pyrazol-4-yl)phenyl)-3-(3-methoxyphenethyl)pyrrolidin-2-one]",10 to 100 nM
11,"O=C1C(Nc2ccccc2)CCN1c1ccc(-c2cn[nH]c2)cc1 (stereo not shown) [Example 58, 1-(4-(1H-pyrazol-4-yl)phenyl)-3-(phenylamino)pyrrolidin-2-one]",10 to 100 nM
12,"N#Cc1cccc(CC2CCN(c3ccc(-c4cn[nH]c4)cc3)C2=O)c1 (stereo not shown) [Example 97, 3-((1-(4-(1H-pyrazol-4-yl)phenyl)-2-oxopyrrolidin-3-yl)methyl)benzonitrile]",100 to 2200 nM
13,"COc1cccc(N(CCO)C2CCN(c3ccc(-c4cn[nH]c4)cc3)C2=O)c1 (stereo not shown) [Example 12, 1-(4-(1H-pyrazol-4-yl)phenyl)-3-((2-hydroxyethyl)(3-methoxyphenyl)amino)pyrrolidin-2-one]",10 to 100 nM
14,"COc1ccc(NC2CCN(c3ccc(-c4cn[nH]c4)cc3)C2=O)cc1F (single isomer, unassigned) [Example 13, 1-(4-(1H-Pyrazol-4-yl)phenyl)-3-((3-fluoro-4-methoxyphenyl)amino)pyrrolidin-2-one]",100 to 2200 nM
15,"COc1cccc(N[C@H]2C(=O)N(c3ccc(-c4cn[nH]c4)cc3)C[C@@H]2CO)c1 [Example 133, (3R,4S)-1-(4-(1H-Pyrazol-4-yl)phenyl)-4-(hydroxymethyl)-3-((3-methoxyphenyl)amino) pyrrolidin-2-one]",< 10 nM
16,"COc1cccc(NC2CCN(c3ccc(-c4ccncc4F)c(C)n3)C2=O)c1 (single isomer, unassigned) [Example 121, 1-(3′-fluoro-2-methyl-[3,4′-bipyridin]-6-yl)-3-((3-methoxyphenyl)amino)pyrrolidin-2-one]",100 to 2200 nM

# Continued, values first:
row,IC50,SMILES
1,100 to 2200 nM,"O=C1[C@H](Nc2ccc3c(c2)CS(=O)(=O)C3)CCN1c1ccc(-c2cn[nH]c2)cc1 [Example 392, (R)-1-(4-(1H-pyrazol-4-yl)phenyl)-3-((2,2-dioxido-1,3-dihydrobenzo[c]thiophen-5-yl)amino)pyrrolidin-2-one]"
2,10 to 100 nM,"COc1nc(N2CCC(N3CCC(=O)CC3)C2=O)ccc1-c1cn[nH]c1 (racemic) [Example 292, 1-(1-(6-methoxy-5-(1H-pyrazol-4-yl)pyridin-2-yl)-2-oxopyrrolidin-3-yl)piperidin-4-one hydrochloridehydrate]"
3,100 to 2200 nM,"COc1ccc(N2CCN(C3CCN(c4ccc(-c5cn[nH]c5)c(OC)n4)C3=O)CC2)cc1 (racemic) [Example 287, 1-(6-methoxy-5-(1H-pyrazol-4-yl)pyridin-2-yl)-3-(4-(4-methoxyphenyl)piperazin-1-yl)pyrrolidin-2-one dihydrochloride]"
4,< 10 nM,"CCOc1cccc(NC2CCN(c3ccc(-c4cn[nH]c4)c(OC)c3)C2=O)c1 (single isomer, unassigned) [Example 250, 3-((3-ethoxyphenyl)amino)-1-(3-methoxy-4-(1H-pyrazol-4-yl)phenyl)pyrrolidin-2-one]"
5,100 to 2200 nM,"COc1cccc(NC2CCN(c3ccc(-c4cn[nH]c4)cc3Cl)C2=O)c1 (single isomer, unassigned) [Example 166, 1-(2-chloro-4-(1H-pyrazo1-4-yl)phenyl)-3 ((3-methoxyphenyl)amino)pyrrolidin-2-one]"
6,< 10 nM,"CCc1nc(N2CCC(Nc3ccc(F)c(OC)c3)C2=O)ccc1-c1cn[nH]c1 (single isomer, unassigned) [Example 317, 1-(6-ethyl-5-(1H-pyrazol-4-yl)pyridin-2-yl)-3-((4-fluoro-3-methoxyphenyl)amino) pyrrolidin-2-one]"
7,10 to 100 nM,"COc1cc(NC2CCN(c3ccc(-c4cn[nH]c4)c(Cl)c3)C2=O)ccc1F (single isomer, unassigned) [Example 160, 1-(3-chloro-4-(1H-pyrazol-4-yl)phenyl)-3-((4-fluoro-3-methoxyphenyl)amino) pyrrolidin-2-one]"
8,< 10 nM,"COc1cc(N2CCC(Nc3cccc(F)c3OC)C2=O)ccc1-c1cn[nH]c1 (single isomer, unassigned) [Example 151, 3-((3-fluoro-2-methoxyphenyl)amino)-1-(3-methoxy-4-(1H-pyrazol-4-yl)phenyl) pyrrolidin-2-one]"
9,100 to 2200 nM,"COc1nc(N2CCC(N3CCN(S(C)(=O)=O)CC3)C2=O)ccc1-c1cn[nH]c1 (racemic) [Example 286, 1-(6-methoxy-5-(1H-pyrazol-4-yl)pyridin-2-yl)-3-(4-(methylsulfonyl)piperazin-1-yl)pyrrolidin-2-one]"
10,10 to 100 nM,"O=C1C(Nc2cccc(OCC3CC3)c2)CCN1c1ccc(-c2cn[nH]c2)c(F)c1 (single isomer, unassigned) [Example 362, 3-((3-(cyclopropylmethoxy)phenyl)amino)-1-(3-fluoro-4-(1H-pyrazol-4-yl)phenyl)pyrrolidin-2-one]"
11,10 to 100 nM,"COc1cccc(NC2CCN(c3ccc(-c4cn[nH]c4)cc3F)C2=O)c1 (single isomer, unassigned) [Example 328, 1-(2-fluoro-4-(1H-pyrazol-4-yl)phenyl)-3-((3-methoxyphenyl)amino)pyrrolidin-2-one]"
12,100 to 2200 nM,"COc1cc(F)cc(NC2CCN(c3ccc(-c4cn[nH]c4)c(C(F)F)c3)C2=O)c1 (single isomer, unassigned) [Example 177, 1-(3-(difluoromethyl)-4-(1H-pyrazol-4-yl)phenyl)-3-((3-fluoro-5-methoxyphenyl)amino)pyrrolidin-2-one]"
13,100 to 2200 nM,"COc1cc(F)cc(NC2CCN(c3ncc(-c4cn[nH]c4)cc3F)C2=O)c1 (single isomer, unassigned) [Example 359, 1-(3-fluoro-5-(1H-pyrazol-4-yl)pyridin-2-yl)-3-((3-fluoro-5-methoxyphenyl)amino) pyrrolidin-2-one]"
14,< 10 nM,"COc1cccc(NC2C(=O)N(c3ccc(-c4cn[nH]c4)cc3)C[C@H]2CO)c1 (single isomer, unassigned) [Example 323]"
15,10 to 100 nM,"COc1nc(N2CCC(Nc3ccc4c(c3)OCCO4)C2=O)ccc1-c1cn[nH]c1 (racemic) [Example 256, 3-((2,3-dihydrobenzo[b][l,4]dioxin-6-yl)amino)-1-(6-methoxy-5-(1H-pyrazol-4-yl)pyridin-2-yl)pyrrolidin-2-one]"
16,100 to 2200 nM,"COCc1cc(N2CCC(Nc3cccc(OC)c3)C2=O)ccc1-c1cn[nH]c1 (single isomer, unassigned) [Example 183, 1-(3-(methoxymethyl)-4-(1H-pyrazol-4-yl)phenyl)-3-((3-methoxyphenyl)amino) pyrrolidin-2-one]"
17,< 10 nM,"COc1cc(NC2CCN(c3ccc(-c4cn[nH]c4)c(Cl)c3)C2=O)ccc1F (single isomer, unassigned) [Example 161, 1-(3-chloro-4-(1H-pyrazol-4-yl)phenyl)-3-((4-fluoro-3-methoxyphenyl)amino) pyrrolidin-2-one]"
18,10 to 100 nM,"COc1nc(N2CCC(Nc3cc(C)nn3C)C2=O)ccc1-c1cn[nH]c1 (racemic) [Example 270, 3-((1,3-dimethyl-1H-pyrazol-5-yl)amino)-1-(6-methoxy-5-(1H-pyrazol-4-yl)pyridin-2-yl)pyrrolidin-2-one]"
19,10 to 100 nM,"COc1cc(NC2CCN(c3ccc(-c4cn[nH]c4)c(F)c3F)C2=O)ccc1F (single isomer, unassigned) [Example 307, 1-(2,3-difluoro-4-(1H-pyrazol-4-yl)phenyl)-3-((4-fluoro-3-methoxyphenyl)amino)pyrrolidin-2-one]"
20,100 to 2200 nM,"COc1nc(N2CCC(Nc3nc(C(C)(C)C)cs3)C2=O)ccc1-c1cn[nH]c1 (racemic) [Example 269, 3-((4-(tert-butyl)thiazol-2-yl)amino)-1-(6-methoxy-5-(1H-pyrazol-4-yl)pyridin-2-yl)pyrrolidin-2-one]"
21,10 to 100 nM,"CCc1nc(N2CCC(Nc3ccc(F)c(OC)c3)C2=O)ccc1-c1cn[nH]c1 (single isomer, unassigned) [Example 318, 1-(6-ethyl-5-(1H-pyrazol-4-yl)pyridin-2-yl)-3-((4-fluoro-3-methoxyphenyl)amino) pyrrolidin-2-one]"

# From US10112929B2, “Lactams as inhibitors of rock” (BRISTOL-MYERS SQUIBB COMPANY, priority 2015, dated 2018)
